In patent US20240277861A1, “ANTI-HEPATITIS B VIRUS AGENT TARGETING HOST FACTOR LIPG” (PUROTECH BIO, INC., priority 2021, published 2024):

Legend:
[1] = test system: HBV; experiment: HBV attachment and uptake assay in HepG2-NTCP-C4-LIPG cells; format: cell-based; conditions: concentration-dependent
Protocol: (§1) HBV-DNA and cccDNA were quantified by qPCR as described below. Total DNA was extracted from cells using DNeasy Blood & Tissue Kit (Qiagen, Hilden, Germany). HBV-DNA was quantified by qPCR analysis as previously reported (Honda. M. et al., J. Infect. Dis., 213, 1096-1106, 2016). The extracted DNA (50 ng) was treated with 10 U of Plasmid safe DNase I (Epicentre, Madison. WI) at 37° C. for 60 minutes and then treated at 70° C. for 30 minutes for DNase inactivation, cccDNA was quantified by qPCR analysis as previously reported (Honda, M. et al., J. Infect. Dis. 213, 1096-1106, 2016). Quantitative RT-PCR was performed as described below. The GenElute™ Mammalian Total RNA Miniprep Kit (Sigma-Aldrich) was used for extraction of total RNA, and the High Capacity cDNA Reverse Transcription Kit (Applied Biosystems, Carlsbad, CA) was used for cDNA synthesis. The 7500 Real Time PCR System (Applied Biosystems) was used for RT-PCR. Primers 5′-[…]-3′ (SEQ ID NO: 31) and 5′-[…]-3′ (SEQ ID NO: 32) and a probe 5′-FAM-[…]-MGB-3′ (SEQ ID NO: 33) were used for pregenomic RNA. Primer pairs and probes for LIPG, NTCP. 18SrRNA, and ACTB were obtained from the TaqMan assay reagents library.
When the abundance of LIPG expression was compared among different liver cell lines. […] HepG2-NTCP-C4 cells with overexpression of FLAG-LIPG (HepG2-NTCP-C4-LIPG cells) were established (FIG. 2B), and the attachment and uptake of HBV into cells were assayed in the resulting cells. Heparin, which has been reported to inhibit HBV attachment (Schulze. A. et al., Hepatology 46: 1759-1768, 2007), and heparanase, an endo-β-D-glucuronidase that cleaves the heparan sulfate side chain in heparan sulfate proteoglycans (HSPGs) (Bame, KJ. Glycobiology,11: 91R-98R,2001), were used as control compounds. Cells (HepG2-NTCP-C4-LIPG cells and HepG2-NTCP-C4 control cells) were pretreated with these compounds for 1 hour and then with HBV at 4° C. for 3 hours to allow HBV to attach the cells, washed to wash out HBV, and further incubated at 37° C. for 12 hours to detect uptake of HBV (FIG. 2C). In addition, the cells were further cultured in a conventional culture medium for 3 days after HBV inoculation to detect HBV DNA and cccDNA in the cells (FIG. 2C). HBV attachment was detected by qPCR of HBV-DNA at 3 hours after HBV inoculation at 4° C. in the presence or absence of the compound (heparin or heparanase). HBV attachment (FIG. 2D), uptake (FIG. 2E), and replication of HBV DNA and cccDNA (FIGS. 2F and 2G) were all increased in the HepG2-NTCP-C4-LIPG cells compared to the HepG2-NTCP-C4 control cells.
Next, the effect of a LIPG inhibitor (GSK-264220A) on HBV attachment and uptake was examined. […] At the same time, this inhibitor had no effect on HepG2-NTCP-C4 control cells.

[2] = test system: HBV; experiment: HBV attachment, uptake and replication in Huh7-LIPG cells; format: cell-based; conditions: Huh7-LIPG cells infected with HBV, 3 days after treatment
Protocol: as §1
When the abundance of LIPG expression was compared among different liver cell lines. […] HepG2-NTCP-C4 cells with overexpression of FLAG-LIPG (HepG2-NTCP-C4-LIPG cells) were established (FIG. 2B), and the attachment and uptake of HBV into cells were assayed in the resulting cells. Heparin, which has been reported to inhibit HBV attachment (Schulze. A. et al., Hepatology 46: 1759-1768, 2007), and heparanase, an endo-β-D-glucuronidase that cleaves the heparan sulfate side chain in heparan sulfate proteoglycans (HSPGs) (Bame, KJ. Glycobiology,11: 91R-98R,2001), were used as control compounds. […] HBV attachment was detected by qPCR of HBV-DNA at 3 hours after HBV inoculation at 4° C. in the presence or absence of the compound (heparin or heparanase). […]

[3] = test system: HBV; experiment: HBV attachment and uptake assay in HepG2-NTCP-C4 cells; format: cell-based; conditions: HepG2-NTCP-C4 control cells
Protocol: as §1, with “18SrRNA, and ACTB were obtained from the TaqMan assay reagents library.” left out
When the abundance of LIPG expression was compared among different liver cell lines. […] HBV attachment was detected by qPCR of HBV-DNA at 3 hours after HBV inoculation at 4° C. in the presence or absence of the compound (heparin or heparanase). […]

[4] = test system: HBV-cccDNA; conditions: Patent Document 1; cited from earlier work
[5] = test system: HBV; conditions: in vitro cell system; cited from earlier work
[6] = test system: LIPG-mediated HBV attachment and entry (preS1 peptide) in PXB cells; experiment: Uptake of TMR-labeled preS1 peptide into PXB cells (confocal microscopy); format: cell-based, human; conditions: PXB cells treated with FLAG-LIPG 3 hours
Protocol: FIG. 22-1 The effect of LIPG to promote HBV entry into cells and the effect of a LIPG-binding peptide and Netrin-1 to inhibit HBV entry into cells. A: PXB cells were mixed with a purified form of FLAG-LIPG and incubated for 3 hours. The resulting cells were mixed with a preS1 peptide fluorescently labeled with TMR (tetramethylrhodamine) and incubated for 30 minutes, and then observed with a confocal microscope. The fluorescence of the preS1 peptide was detected, and the fluorescence intensity was normalized to the DAPI fluorescence intensity. p<0.05. B: PXB cells were treated with 100 nM LIPG-binding peptide LIPH4-23S or LIPH4-NTNBS for 15 hours, and a purified form of FLAG-LIPG was added thereto, followed by incubation for 3 hours. The resulting cells were mixed with a preS1 peptide fluorescently labeled with TMR and incubated for 30 minutes, and then observed with a confocal microscope. The fluorescence of the preS1 peptide was detected, and the fluorescence intensity was normalized to the DAPI fluorescence intensity. *:p<0.05. C: PXB cells were mixed with Netrin-1 and incubated for 3 hours. […] The fluorescence of the preS1 peptide was detected, and the fluorescence intensity was normalized to the DAPI fluorescence intensity. *:p<0.05. […] The fluorescence of the preS1 peptide was detected, and the fluorescence intensity was normalized to the DAPI fluorescence intensity. […]

[7] = target: T1, binding between preS1 and heparan sulfate enhanced by LIPG (Homo sapiens, UniProt Q9Y5X9); experiment: Plate assay of binding between preS1 peptide and immobilized heparan sulfate with FLAG-LIPG; conditions: 10, 25, or 50 fmol of FLAG-LIPG per well
T1 construct: FLAG
T1 sequence (Q9Y5X9 21-500): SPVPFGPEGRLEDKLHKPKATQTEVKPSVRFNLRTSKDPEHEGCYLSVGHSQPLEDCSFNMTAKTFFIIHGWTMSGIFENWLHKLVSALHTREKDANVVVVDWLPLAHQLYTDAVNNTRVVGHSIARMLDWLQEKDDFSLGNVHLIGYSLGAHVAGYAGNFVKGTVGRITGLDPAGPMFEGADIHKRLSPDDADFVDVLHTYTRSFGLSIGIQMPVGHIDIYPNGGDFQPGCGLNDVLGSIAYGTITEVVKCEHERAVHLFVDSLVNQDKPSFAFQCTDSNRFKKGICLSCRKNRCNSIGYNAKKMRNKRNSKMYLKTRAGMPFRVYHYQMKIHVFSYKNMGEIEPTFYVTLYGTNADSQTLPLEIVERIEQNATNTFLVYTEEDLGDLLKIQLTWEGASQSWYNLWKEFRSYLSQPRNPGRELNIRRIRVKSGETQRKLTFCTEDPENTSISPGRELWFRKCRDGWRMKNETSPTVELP
Protocol: FIG. 22-2 The effect of LIPG to promote HBV entry into cells and the effect of a LIPG-binding peptide and Netrin-1 to inhibit HBV entry into cells. E: A biotin-labeled form of heparan sulfate was added to a streptavidin-coated 96 well plate and left overnight at 4° C. to allow the heparan sulfate to bind to the plate. This plate was washed with TBS, and 10, 25, or 50 fmol of FLAG-LIPG was then added to each well to allow the reaction to proceed at room temperature for 2 hours. After the plate was washed, 10 or 100 nmol of LIPG-binding peptide LIPH4-NTNBS, LIPH4-23S, LIPH4-NTNBSA, or LIPH4-23SA was added to each well to allow the treatment to proceed at room temperature for 1 hour. Subsequently, the plate was washed, and 0.1 nmol of preS1-TMR was added to each well to allow the treatment to proceed at room temperature for another 1 hour. The plate was washed and then placed in a plate reader to measure the fluorescence of TMR.
Furthermore, PXB cells treated with Netrin-1 were further treated with FLAG-LIPG, and the uptake of the preS1 peptide was examined, to find that the enhancement of the uptake of the preS1 peptide by FLAG-LIPG was suppressed by Netrin-1 (FIG. 22D). In addition, a biotin-labeled heparan sulfate was immobilized on a streptavidin-coated plate and the preS1 peptide was added thereto to study the binding between the preS1 region of HBV and heparan sulfate present on the cell surface.

**Q.** With Cc1oc(S(=O)(=O)N2CCCCC2)cc1NC(=O)Nc1ccccc1 [GSK-264220A] as the molecule, how does the “HBV attachment (HBV-DNA)” value ([1]; 3 hours after HBV inoculation at 4° C.) read?
**A.** Its value is “inhibited”.

**Q.** And the “HBV uptake (HBV-DNA)” value ([1]; 12 hours after being recultured at 37° C.)?
**A.** The value was “inhibited”.

**Q.** What about the “LIPG-mediated increase in HBV replication (cccDNA)” value [2] of the same molecule?
**A.** Its value is “reduced HBV replication”.

**Q.** And the “HBV attachment and uptake” value [3]?
**A.** The value was “no effect”.

**Q.** And the HBV-cccDNA [4]?
**A.** The HBV-cccDNA was “effective in reducing HBV-cccDNA”.

**Q.** With COc1cc2ncnc(Nc3ccc(F)c(Cl)c3)c2cc1OCCCN1CCOCC1 [gefitinib] as the molecule, how does the HBV infection [5] read?
**A.** Its HBV infection is “reduces HBV infection”.

B1: FLAG-LIPG: purified form of FLAG-tagged LIPG added to PXB cells or plate (protein)
chain: SPVPFGPEGRLEDKLHKPKATQTEVKPSVRFNLRTSKDPEHEGCYLSVGHSQPLEDCSFNMTAKTFFIIHGWTMSGIFENWLHKLVSALHTREKDANVVVVDWLPLAHQLYTDAVNNTRVVGHSIARMLDWLQEKDDFSLGNVHLIGYSLGAHVAGYAGNFVKGTVGRITGLDPAGPMFEGADIHKRLSPDDADFVDVLHTYTRSFGLSIGIQMPVGHIDIYPNGGDFQPGCGLNDVLGSIAYGTITEVVKCEHERAVHLFVDSLVNQDKPSFAFQCTDSNRFKKGICLSCRKNRCNSIGYNAKKMRNKRNSKMYLKTRAGMPFRVYHYQMKIHVFSYKNMGEIEPTFYVTLYGTNADSQTLPLEIVERIEQNATNTFLVYTEEDLGDLLKIQLTWEGASQSWYNLWKEFRSYLSQPRNPGRELNIRRIRVKSGETQRKLTFCTEDPENTSISPGRELWFRKCRDGWRMKNETSPTVELPDYKDDDDK
**Q.** For B1, which “preS1 peptide present in the cells” value [6] is on record?
**A.** Its value is “increased by FLAG-LIPG in a concentration-dependent manner”.

**Q.** What about the “binding between preS1 and heparan sulfate (TMR fluorescence)” value [7] of the same molecule?
**A.** The value was “enhanced by FLAG-LIPG in a concentration-dependent manner”.
